Laboratory results from US20210380595A1 (ARAXES PHARMA LLC, priority 2018, published 2021).

The molecules below were run against T1, KRAS G12C 1-169, his-tagged protein, GDP-loaded (Homo sapiens, UniProt P01116, G12C) (assay: Biochemical assay: covalent modification of KRAS G12C measured by mass spectrometry (RapidFire/TOF or Q-Exactive)). Details: tested at 32 μM.
T1 construct: KRAS G12C 1-169, his-tagged protein, GDP-loaded
Format: binding
Description: Test compounds were prepared as 10 mM stock solutions in DMSO (Fisher cat. #BP-231-100). KRAS G12C 1-169, his-tagged protein, GDP-loaded is diluted to 2 μM or 0.5 μM in buffer (20 mM Hepes, 150 mM NaCl, 1 mM MgCl2). Compounds were tested for activity as follows:
Compounds were diluted to 50× final test concentration in DMSO in 96-well storage plates. Compound stock solutions were vortexed before use and observed cwerefully for any sign of precipitation. Dilutions were as follow: • For 32 μM final compound concentration, compounds were diluted to 1600 μM (3 μL 10 mM compound stock +15.75 μL DMSO and mixed well by pipetting. • For 8 μM final compound concentration, compounds were diluted to 400 μM (2 μL 10 mM compound stock +48 μL DMSO) and mixed well by pipetting. 49 μL of the stock protein solution was added to each well of a 96-well PCR plate (Fisher cat#1423027). 1 μl of the diluted 50× compounds were added to appropriate wells in the PCR plate using 12-channel pipettor. Reactions were mixed carefully and thoroughly by pipetting up/down with a 200 μL multi-channel pipettor. The plate was sealed well with aluminum plate seal, and protein and compound were allowed to react for a desired amount of time. 5 μL of 2% formic acid (Fisher cat#A117) in de-ionized H2O was then added to each well followed by mixing with a pipette to quench the reaction. The plate was then resealed with aluminum seal and stored frozen on dry ice until analyzed as described below.
The above described assays were analyzed by mass spectrometry according to one of the following two procedures:
The MS instrument was set to positive polarity, 2 GHz resolution, and low mass (1700) mode and allowed to equilibrate for 30 minutes. The instrument was then calibrated, switched to acquisition mode and the appropriate method loaded.
After another 30 minute equilibration time, a blank batch (i.e., buffer) was run to ensure equipment is operating properly. The samples were thawed at 37° C. for 10 minutes, briefly centrifuged, and transfered to the bench top. Wells A1 and H12 were spiked with 1 μL 500 μM internal standard peptide, and the plates centrifuged at 2000×g for 5 minutes. The method was then run and masses of each individual well recorded.
The masses (for which integration data is desired) for each well were pasted into the platemap and exported from the analysis. Masses for the internal standards were exported as well. The data at 50 ppm was extracted for the +19 charge state, and identity of well A1 was assigned using the internal standard spike and integrated. Peak data was exported as a TOF list and the above steps were repeated individually, for the +20, +21, +22, +23, +24, and +25 charge states.
The masses and peak intensities of KRAS G12C protein species were measured using a Dionex RSLCnano system (Thermo Scientific) connected to a Q Exactive Plus mass spectrometer (Thermo Scientific).
20 μL of sample was loaded onto a Aeris™ 3.6 μm WIDEPORE C4 200 Å, LC Column 50×2.1 mm column maintained at 40° C. at a flow rate of 600 μL/min with 80% Solvent A (0.1% formic acid in H2O) and 20% Solvent B (0.1% formic acid in acetonitrile). The liquid chromatography conditions were 20% solvent B for 1 minute, 20% to 60% solvent B for 1.5 minutes, 60% to 90% solvent for 0.5 minute, 90% solvent B for 0.2 minute, 90% to 20% solvent B for 0.2 minute, and then equilibrated for 1.6 minute before the following sample injection. The flow rate was maintained at 600 μL/min throughout the sample analysis.
The mass spectrometer was operated in profile mode at a resolution of 17500, 5 microscans, using 50 msec max injection time and an AGC target of 1×10^6, and a full mass range from 800-1850 m/z was recorded. The intact protein mode was applied for optimal ion transfer and maximum sensitivity. The ionization method was electrospray ionization, which used a spray voltage of 4 kV, sheath gas flow set to 50 AU, auxiliary gas flow set to 10 AU and sweep gas flow set to 1 AU. […]

Row | Compound | Bind %
1 | C=CC(=O)N1CC2(CCN(c3ccc(F)c(-c4c(C)ccc5[nH]ncc45)c3C#N)CC2)C1 (atropisomer, axis not shown) [Compound I-140, (R)-6-(2-acryloyl-2,7-diazaspiro[3.5]nonan-7-yl)-3-fluoro-2-(5-methyl-1H-indazol-4-yl)benzonitrile] | + (+ indicates binding activity greater than 0% and up to 50%)
2 | C=CC(=O)N1CC2(CCN(c3ccc(F)c(-c4c(C)ccc5[nH]ncc45)c3C#N)CC2)C1 (atropisomer, axis not shown) [Compound I-141, (S)-6-(2-acryloyl-2,7-diazaspiro[3.5]nonan-7-yl)-3-fluoro-2-(5-methyl-1H-indazol-4-yl)benzonitrile] | + (+ indicates binding activity greater than 0% and up to 50%)
3 | C=CC(=O)N1CC2(CCN(c3cccc(-c4c(C)ccc5[nH]ncc45)c3C#N)C2)C1 [Compound I-1, 2-(2-acryloyl-2,6-diazaspiro[3.4]octan-6-yl)-6-(5-methyl-1H-indazol-4-yl)benzonitrile] | +++ (+++ indicates binding activity greater than 75%)
4 | C=CC(=O)N1CC2(CCN(c3cccc(-c4c(C)ccc5[nH]ncc45)c3OC)C2)C1 [Compound I-2, 1-(6-(2-methoxy-3-(5-methyl-1H-indazol-4-yl)phenyl)-2,6-diazaspiro[3.4]octan-2-yl)prop-2-en-1-one] | + (+ indicates binding activity greater than 0% and up to 50%)
5 | C=CC(=O)N1CC2(CCN(c3cccc(-c4c(C)ccc5cnn(C)c45)c3F)C2)C1 [Compound I-3, 1-(6-(3-(1,6-dimethyl-1H-indazol-7-yl)-2-fluorophenyl)-2,6-diazaspiro[3.4]octan-2-yl)prop-2-en-1-one] | + (+ indicates binding activity greater than 0% and up to 50%)
6 | CC#CC(=O)N1CC2(CCN(c3cccc(-c4c(C)ccc5[nH]ncc45)c3C#N)C2)C1 [Compound I-4, 2-(2-(but-2-ynoyl)-2,6-diazaspiro[3.4]octan-6-yl)-6-(5-methyl-1H-indazol-4-yl)benzonitrile] | + (+ indicates binding activity greater than 0% and up to 50%)
7 | C=CC(=O)N1CC2(CCN(c3cccc(-c4c(C)ccc5cnn(C)c45)c3OC)C2)C1 [Compound I-5, 1-(6-(3-(1,6-dimethyl-1H-indazol-7-yl)-2-methoxyphenyl)-2,6-diazaspiro[3.4]octan-2-yl)prop-2-en-1-one] | ++ (++ indicates binding activity from 50 to 75%)
8 | C=CC(=O)N1CCC2(CCN(c3cccc(-c4c(O)cccc4F)c3C#N)C2)C1 (stereo not shown) [Compound I-6, 3-(7-acryloyl-2,7-diazaspiro[4.4]nonan-2-yl)-2′-fluoro-6′-hydroxy-[1,1′-biphenyl]-2-carbonitrile] | + (+ indicates binding activity greater than 0% and up to 50%)
9 | C=CC(=O)N1CC2(CCN(c3cc(N4CCOCC4)cc(-c4c(C)ccc5[nH]ncc45)c3C#N)C2)C1 [Compound I-7, 2-(2-acryloyl-2,6-diazaspiro[3.4]octan-6-yl)-6-(5-methyl-1H-indazol-4-yl)-4-morpholino-benzonitrile] | +++ (+++ indicates binding activity greater than 75%)
10 | C=CC(=O)N1CC2(CCN(c3cccc(-c4c(C)ccc5[nH]ncc45)c3F)C2)C1 [Compound I-8, 1-(6-(2-fluoro-3-(5-methyl-1H-indazol-4-yl)phenyl)-2,6-diazaspiro[3.4]octan-2-yl)prop-2-en-1-one] | + (+ indicates binding activity greater than 0% and up to 50%)
11 | C=CC(=O)N1CCC2(C1)CN(c1cccc(-c3c(C)ccc4[nH]ncc34)c1C#N)C2 [Compound I-9, 2-(6-acryloyl-2,6-diazaspiro[3.4]octan-2-yl)-6-(5-methyl-1H-indazol-4-yl)benzonitrile] | + (+ indicates binding activity greater than 0% and up to 50%)
12 | C=CC(=O)N1CCC2(C1)CN(c1cccc(-c3c(O)cccc3F)c1C#N)C2 [Compound I-10, 3-(6-acryloyl-2,6-diazaspiro[3.4]octan-2-yl)-2′-fluoro-6′-hydroxy-[1,1′-biphenyl]-2-carbonitrile] | + (+ indicates binding activity greater than 0% and up to 50%)
13 | C=CC(=O)N1CCC2(C1)CN(c1cccc(-c3c(C)ccc4cnn(C)c34)c1C#N)C2 [Compound I-11, 2-(6-acryloyl-2,6-diazaspiro[3.4]octan-2-yl)-6-(1,6-dimethyl-1H-indazol-7-yl)benzonitrile] | + (+ indicates binding activity greater than 0% and up to 50%)
14 | CC#CC(=O)N1CC2(CCN(c3cccc(-c4c(C)ccc5cnn(C)c45)c3C#N)C2)C1 [Compound I-12, 2-(2-(but-2-ynoyl)-2,6-diazaspiro[3.4]octan-6-yl)-6-(1,6-dimethyl-1H-indazol-7-yl)benzonitrile] | + (+ indicates binding activity greater than 0% and up to 50%)
15 | C=CC(=O)N1CCC2(CCN(c3cccc(-c4c(C)ccc5cnn(C)c45)c3C#N)C2)C1 (stereo not shown) [Compound I-13, 2-(7-acryloyl-2,7-diazaspiro[4.4]nonan-2-yl)-6-(1,6-dimethyl-1H-indazol-7-yl)benzonitrile] | + (+ indicates binding activity greater than 0% and up to 50%)
16 | C=CC(=O)N1CC2(CCN(c3cc(OC)cc(-c4c(C)ccc5[nH]ncc45)c3C#N)C2)C1 [Compound I-14, 2-(2-acryloyl-2,6-diazaspiro[3.4]octan-6-yl)-4-methoxy-6-(5-methyl-1H-indazol-4-yl)benzonitrile] | +++ (+++ indicates binding activity greater than 75%)
17 | C=CC(=O)N1CCC2(CC1)CN(c1cccc(-c3c(C)ccc4cnn(C)c34)c1C#N)C2 [Compound I-15, 2-(7-acryloyl-2,7-diazaspiro[3.5]nonan-2-yl)-6-(1,6-dimethyl-1H-indazol-7-yl)benzonitrile] | + (+ indicates binding activity greater than 0% and up to 50%)
18 | C=CC(=O)N1CC2(CCN(c3cc(N4CCOCC4)cc(-c4c(C)ccc5cnn(C)c45)c3C#N)C2)C1 [Compound I-16, 2-(2-acryloyl-2,6-diazaspiro[3.4]octan-6-yl)-6-(1,6-dimethyl-1H-indazol-7-yl)-4-morpholino-benzonitrile] | +++ (+++ indicates binding activity greater than 75%)
19 | C=CC(=O)N1CC2(CCN(c3cccc(-c4c(O)cccc4F)c3C#N)C2)C1 [Compound I-17, 3-(2-acryloyl-2,6-diazaspiro[3.4]octan-6-yl)-2′-fluoro-6′-hydroxy-[1,1′-biphenyl]-2-carbonitrile] | + (+ indicates binding activity greater than 0% and up to 50%)

Same assay, conditions: tested at a concentration of 8 μM

Row | Compound | Bind %
20 | C=CC(=O)N1CC2(CCN(c3ccc(F)c(-c4c(C)ccc5[nH]ncc45)c3C#N)C2)C1 (atropisomer, axis not shown) [Compound I-43, (R)-6-(2-acryloyl-2,6-diazaspiro[3.4]octan-6-yl)-3-fluoro-2-(5-methyl-1H-indazol-4-yl)benzonitrile] | +++ (+++ indicates binding activity greater than 75%)
21 | C=CC(=O)N1CC2(CCN(c3ccc(F)c(-c4c(C)ccc5cnn(C)c45)c3C#N)C2)C1 (atropisomer, axis not shown) [Compound I-44, (S)-6-(2-acryloyl-2,6-diazaspiro[3.4]octan-6-yl)-2-(1,6-dimethyl-1H-indazol-7-yl)-3-fluorobenzo-nitrile] | +++ (+++ indicates binding activity greater than 75%)
22 | C=CC(=O)N1CC2(CCN(c3ccc(F)c(-c4c(C)ccc5cnn(C)c45)c3C#N)C2)C1 (atropisomer, axis not shown) [Compound I-45, (R)-6-(2-acryloyl-2,6-diazaspiro[3.4]octan-6-yl)-2-(1,6-dimethyl-1H-indazol-7-yl)-3-fluorobenzo-nitrile] | + (+ indicates binding activity greater than 0% and up to 50%)
